Measured values reported in US12157810B1 (priority 2020, dated 2024).

System: cell culture

Substance: poly(alloocimene-b-isobutylene-b-alloocimene) [AIBA]
- cytotoxicity in cell culture studies: non-cytotoxicity
